Source: patent US4725578A, “Compounds having therapeutic effect and the preparation thereof” (Tobishi Pharmaceutical Co., Ltd., priority 1986, dated 1988)
Entries after “also recorded” stand apart in the source; their conditions may differ.

What was measured:
P-388 cells = assay: Antineoplastic action against implanted P-388 cells (ip-ip), survival T/C; assay type: in vivo, CDFl mice; conditions: for T/C % (Treatment/Control %): Table 6, P388, intraperitoneal
Protocol: To the peritoneal cavity of each group of mice consisting of six CDFl mice per group, 10^6 /0.1 ml of P-388 cells or 10^5 /0.1 ml of L-1210 cells were implanted. […]
In the Table, the symbol T/C % means Treatment/Control %, that is the increase in life when the control is 100. […] This method is used in the screening of U.S. National Cancer Institute.
(§1) In Table 7, the symbol "i.P.-i.P." means that the tumor cells are implanted intraperitoneally and the compounds being tested are also administered intraperitoneally. The symbol "TR" is the therapeutic ratio obtained by dividing the dose which provides a maximum T/C value, by the dose which provides a minimum T/C value.

L-1210 cells = assay: Antineoplastic action against implanted L-1210 cells (ip-ip), survival T/C; assay type: in vivo, CDFl mice
Protocol: In this animal test, the antineoplastic action against the implanted tumor was examined in lower animals, in vivo, in respect of the compounds according to the present invention, by using CDFl mice.
To the peritoneal cavity of each group of mice consisting of six CDFl mice per group, 10^6 /0.1 ml of P-388 cells or 10^5 /0.1 ml of L-1210 cells were implanted. […] While to the control groups of CDFl mice, P-388 and L-1210 cells were implanted in the same manner and they were bred without administration of the compounds.
(§2) In the Table, the symbol T/C % means Treatment/Control %, that is the increase in life when the control is 100. The values are obtained by implanting tumor cells to groups of mice (or rats), administering the compound being tested in various amounts every 24 hours after the implantation of the tumor cells and then calculating the ratio, the median survival time of the group to which the compound has been administered to the survival of the control, multiplied by a factor of 100. This method is used in the screening of U.S. National Cancer Institute.
as §1

B-16 melanoma = assay: B16 melanoma (ip-ip), survival T/C; assay type: in vivo, mice
Protocol: (§3) In the Table, the symbol T/C % means Treatment/Control %, that is the increase in life when the control is 100. The values are obtained by implanting tumor cells to groups of mice (or rats), administering the compound being tested in various amounts every 24 hours after the implantation of the tumor cells and then calculating the ratio, the median survival time of the group to which the compound has been administered to the survival of the control, multiplied by a factor of 100. This method is used in the screening of U.S. National Cancer Institute. […]
as §1

MM2 = MM2 (ip-ip), survival T/C; assay type: in vivo, mice
Protocol: as §3, §1
The term in Table 7, last column "3/6 60<", means that 3 mice out of 6 mice continue to live more than 60 days after the implantation of the tumor cells.

[1] = Toxicity test, lethal dose (Litchfield-Wilcoxon); assay type: in vivo, male 4-weeks CD-1 (ICR) mice; conditions: suspension in 0.5% CMC, 7 days observation
Protocol: With respect to the compounds of this invention, the lethal dose was determined as follows.
By using male 4-weeks CD-1 (ICR) mice consisting of 5 to 10 mice per group, the desired amount of each compound of this invention was suspended in 0.5% CMC solution and the resultant suspension was administered to each mouse intraperitoneally or intravenously. Observing the life or death as well as the general symptome during 7 days after the administration of the compounds, the value of LD50 for each compounds was estimated from the lethal population observed on the basis of the Litchfield-Wilcoxon method.

P 388 = P 388 (ip-iv), survival T/C; assay type: in vivo, mice
Protocol: as §2
In Table 9, "iv" and "sc" means that the administration of the compounds is carried out intravenously and the implantation of the tumor cells is carried out subcutaneously.

Erlich carcinoma = Erlich carcinoma (sc-ip), inhibition; assay type: in vivo; conditions: 4 mg/kg × 11, after 14 days
Lewis Lung Carcinoma = Lewis Lung Carcinoma (sc-ip), inhibition; assay type: in vivo; conditions: 8 mg/kg × 11, after 17 days
Colon. 38 = Colon. 38 (sc-ip), inhibition; assay type: in vivo; conditions: 8 mg/kg × 11, after 17 days
[2] = Neuropharmacological multidimentional observation (modified Arwin and Smith method); assay type: in vivo, 4-weeks CD-1 (IRC) mice; conditions: intraperitoneal, 1 to 20 mg/kg, observed every 30 minutes for 180 minutes, compared with patterns of known medicines; listed as Acetic acid ester of TPC-A
Protocol: In this test, other pharmacological effects which may be obtained by these compounds were investigated.
Each compound of the invention was intraperitoneally administered to 4-weeks CD-1 (IRC) mice (Nippon Charles Liver K.K.) in the dose of 1 to 20 mg/kg with using mice groups consisting of three mice per group. […] The observation was carried out according to the modified Arwin method and Smith method, i.e., neuropharmacological multidimentional observation method.
Making a comparison between the symptom observed and the pattern of the pharmacological action due to the known medicines, it has been discovered that each compound of the invention has the following pharmacological effect.

For COc1ccc(CC2C(=O)NC(C)C(=O)N(C)C3Cc4ccc(cc4)Oc4cc(ccc4OC(C)=O)CC(C(=O)NC(C)C(=O)NC(C)C(=O)N2C)N(C)C3=O)cc1 (centres unmarked) [Ex. 22], the “T/C % (Treatment/Control %)” value (P-388 cells; dose 0.05 mg/kg) was 133.3%, the “T/C % (Treatment/Control %)” value (P-388 cells; dose 0.5 mg/kg) was 155.6% and the “T/C % (Treatment/Control %)” value (P-388 cells; dose 2 mg/kg) was 168.9%. The “T/C % (Treatment/Control %)” value (P-388 cells; dose 10 mg/kg) was 194.7%, the “P388 (i.P. - i.P.) T/C (%)” value (P-388 cells; Table 7, dose 0.05 mg/kg) was 133.3% and the “P388 (i.P. - i.P.) T/C (%)” value (P-388 cells; Table 7, dose 0.5 mg/kg) was 155.6%. The “P388 (i.P. - i.P.) T/C (%)” value (P-388 cells; Table 7, dose 2 mg/kg) was 168.9%, the “P388 (i.P. - i.P.) T/C (%)” value (P-388 cells; Table 7, dose 5 mg/kg) was 175.8% and the “P388 (i.P. - i.P.) T/C (%)” value (P-388 cells; Table 7, dose 10 mg/kg) was 194.7%. For the same compound, the “L1210 (i.P. - i.P.) T/C (%)” value (L-1210 cells; Table 7, dose 0.05 mg/kg) was 100.9%, the “L1210 (i.P. - i.P.) T/C (%)” value (L-1210 cells; Table 7, dose 0.5 mg/kg) was 110.0% and the “L1210 (i.P. - i.P.) T/C (%)” value (L-1210 cells; Table 7, dose 2 mg/kg) was 114.4%. For the same compound, the “L1210 (i.P. - i.P.) T/C (%)” value (L-1210 cells; Table 7, dose 5 mg/kg) was 120.0%, the “L1210 (i.P. - i.P.) T/C (%)” value (L-1210 cells; Table 7, dose 10 mg/kg) was 128.9% and the “effectiveness against B-16 melanoma” value (B-16 melanoma; (see Table 7)) was “effective”. The “B16 (i.P. - i.P.) T/C (%)” value (B-16 melanoma; Table 7, dose 0.5 mg/kg) was 116.9%, the “B16 (i.P. - i.P.) T/C (%)” value (B-16 melanoma; Table 7, dose 2 mg/kg) was 128.5% and the “B16 (i.P. - i.P.) T/C (%)” value (B-16 melanoma; Table 7, dose 4 mg/kg) was 147.8%. The “B16 (i.P. - i.P.) T/C (%)” value (B-16 melanoma; Table 7, dose 8 mg/kg) was 141.1%, the “effectiveness against MM2” value (MM2; (see Table 7)) was “effective” and the “MM2 (i.P. - i.P.) T/C (%)” value (MM2; Table 7, dose 0.5 mg/kg) was 102.5%. The “MM2 (i.P. - i.P.) T/C (%)” value (MM2; Table 7, dose 2 mg/kg) was 109.2%, the “MM2 (i.P. - i.P.) T/C (%)” value (MM2; Table 7, dose 5 mg/kg) was 117.8% and the “MM2 (i.P. - i.P.) T/C (%)” value (MM2; Table 7, dose 10 mg/kg) was 120.9%. For the same compound, the “LD50 and 95% Confidence Limit” value ([1]; intraperitoneal) was 18.4(16.9-20.0) mg/kg, the “LD50 and 95% Confidence Limit” value ([1]; intravenous) was 20.0(15.2-26.3) mg/kg and the T/C (P 388; 1.11 mg/kg × 9) was 112.5%. The T/C (P 388; 5.56 mg/kg × 9) was 171.5%, the Inhibition (Erlich carcinoma) was 46.9% and the Inhibition (Lewis Lung Carcinoma) was 65.4%. The Inhibition (Colon. 38) was 51.9% and the Pharmacological effect estinated [2] was “emetic action; also recorded: psychotropic action; also recorded: antidiuretic action”.
